Read-outs that look alike come from different tables or passages of the source. Residues, ends and D or L forms follow the SMILES beside them. No end group written: not given here.
How the values were obtained:
[1] = tested on: Escherichia coli ATCC 25922; format: cell-based
Method: (§1) To measure the antimicrobial activity of our selected putative AMPs in vitro, broth microdilution assays were conducted to determine the minimum inhibitory and minimum bactericidal concentrations (MICs and MBCs, respectively), as outlined by the Clinical and Laboratory Standards Institute [CLSI] ([2015]). The adaptations for testing cationic AMPs, as described previously (Wiegand et al., [2008]), were incorporated. The selected peptides were tested against laboratory isolates of E. coli 25922 and S. aureus 29213, which were purchased from the American Type Culture Collection (ATCC; Manassas, VA, USA). Bacteria from frozen stocks were streaked onto nonselective Columbia blood agar with 5% sheep blood (Oxoid) and incubated for 18–24 h at 37°C. To ensure the uniform colony health before the assay, 2–4 colonies were streaked onto a new agar plate and incubated for another 18–24 h at 37°C on the next day. To create a standardized bacterial inoculum, isolated colonies were suspended in Mueller‐Hinton Broth (MHB; Sigma‐Aldrich, St. Louis, MO, USA). The suspension was adjusted to an optical density of 0.08–0.1 at 600 nm, which corresponds to a 0.5 McFarland standard of approximately 1–2 × 10^8 colony‐forming units (CFU)/mL. The inoculum was then diluted 1:250, resulting in a final concentration of 5 ± 3 × 10^5 CFU/mL. The target bacterial density was confirmed by measuring the total viability counts from the final tested inoculum.
(§2) The selected putative AMPs were purchased from and synthesized by GenScript (Piscataway, NJ, USA) in lyophilized format. The peptides were stored at −20°C and were suspended in sterile ultrapure water prior to testing. A two‐fold serial dilution of 1280 to 2.5 μg/mL was prepared in sterile 96‐well polypropylene microtiter plates (Greiner Bio‐One #650261, Kremsmünster, Austria). Then, 100 μL of the standardized bacterial inoculum was added to each well, resulting in a final AMP testing range of 128 to 0.25 μg/mL. The MIC values were determined as the lowest peptide concentration in which no visible bacterial growth was observed after a 20–24 h incubation at 37°C. To determine the MBC values, well contents of the MIC and the two adjacent wells containing the two‐ and four‐fold higher peptide concentrations were plated onto nonselective nutrient agar. The concentration in which 99.9% of the inoculum was killed after an incubation for 24 h at 37°C was reported as the MBC.
(§3) In our tests, we used Ranatuerin‐4—a known AMP from the American bullfrog (Goraya et al., [1998]), and an in‐house peptide [TKPKG]3 (OT15) as the positive and negative control peptides, respectively. We note that OT15 was truncated and derived from a negative control peptide [TKPKG]4 (OT20), not antimicrobial but sharing similar characteristics to AMPs, used in previous studies (Horváti et al., [2017]).

[2] = tested on: Staphylococcus aureus ATCC 29213; format: cell-based
Method: as §1, §2, §3

[3] = broth microdilution (CLSI, adapted for cationic AMPs), MHB, 5 ± 3 × 10^5 CFU/mL, 20–24 h at 37°C, tested 0.25–128 μg/mL, range from three independent experiments in duplicate, one maximum and one minimum data point dropped
[4] = concentration killing 99.9% of inoculum, plated on nutrient agar, 24 h at 37°C, range from three independent experiments in duplicate, one maximum and one minimum data point dropped

Molecule | MIC, E. coli ATCC 25922 ([1]; ATCC 25922) | MIC, S. aureus ATCC 29213 ([2]; ATCC 29213) | MBC, S. aureus ATCC 29213 ([2]; ATCC 29213, 24 h) | MIC, E. coli ATCC 25922 [1, 3] | MBC, E. coli ATCC 25922 [1, 4] | MIC, S. aureus ATCC 29213 [2, 3] | MBC, S. aureus ATCC 29213 [2, 4] | MBC, E. coli ATCC 25922 ([1]; ATCC 25922, 24 h)
CSCC[C@H](NC(=O)CNC(=O)[C@H](CO)NC(=O)[C@H](CCCNC(=N)N)NC(=O)[C@@H](NC(=O)[C@H](CO)NC(=O)[C@H](Cc1ccccc1)NC(=O)CNC(=O)[C@H](Cc1ccccc1)NC(=O)[C@@H](NC(=O)[C@H](CO)NC(=O)[C@H](CCCNC(=N)N)NC(=O)[C@H](CCCNC(=N)N)NC(=O)[C@@H](NC(=O)[C@H](C)NC(=O)[C@H](CS)NC(=O)[C@H](Cc1ccccc1)NC(=O)[C@H](CCC(N)=O)NC(=O)[C@H](C)NC(=O)[C@H](CCCNC(=N)N)NC(=O)CNC(=O)[C@H](C)NC(=O)[C@H](Cc1ccc(O)cc1)NC(=O)[C@H](C)NC(=O)[C@H](Cc1c[nH]c2ccccc12)NC(=O)[C@H](CCC(N)=O)NC(=O)[C@H](CO)NC(=O)[C@H](Cc1c[nH]c2ccccc12)NC(=O)[C@@H](N)CCCNC(=N)N)C(C)C)C(C)C)C(C)C)C(=O)N[C@H](C(=O)N[C@@H](CS)C(=O)N[C@@H](CCCNC(=N)N)C(=O)N1CCC[C@H]1C(=O)N[C@@H](CCCNC(=N)N)C(=O)N[C@@H](CCCNC(=N)N)C(=O)O)C(C)C [MuMu1] (H-RWSQWAYAGRAQFCAVRRSVFGFSVRSGMVCRPRR-OH; N-terminus and C-terminus assumed) | ≥ 128 µg/mL | > 128 µg/mL | > 128 µg/mL | – | – | – | – | –
VMRSAGSRSSKR [OrSa6, putative AMP mined from UniProt Q5VRI5, Oryza sativa subsp. japonica] | – | – | – | > 128 µg/mL | > 128 µg/mL | > 128 µg/mL | > 128 µg/mL | –
QFFLPMILRLYVSRLFISKL [CaGl2, putative AMP mined from UniProt P05040, Candida glabrata] | – | – | – | > 128 µg/mL | > 128 µg/mL | > 128 µg/mL | > 128 µg/mL | –
ARLDVAAEFRKKWNKWALSRGKR [SuSc1] | – | – | – | 128 µg/mL | – | > 128 µg/mL | > 128 µg/mL | –
FMRFGKRFMRFGRFGKSAEVENNIQIAAKQS [LySt2] | > 128 µg/mL | > 128 µg/mL | > 128 µg/mL | – | – | – | – | > 128 µg/mL
VLKKSEIRIDFISRTILHI [MoIn1, putative AMP mined from UniProt Q09WW0, Morus indica] | – | – | – | – | – | > 128 µg/mL | > 128 µg/mL | –
CSCC[C@H](NC(=O)[C@H](C)NC(=O)[C@H](CCC(=O)O)NC(=O)[C@H](Cc1c[nH]c2ccccc12)NC(=O)[C@H](CCCNC(=N)N)NC(=O)[C@@H](N)[C@@H](C)O)C(=O)N[C@@H](CCCCN)C(=O)N[C@@H](C)C(=O)N[C@@H](CCCCN)C(=O)N[C@@H](C)C(=O)N[C@H](C(=O)N[C@@H](CCC(=O)O)C(=O)N[C@@H](CC(C)C)C(=O)N[C@@H](CCCNC(=N)N)C(=O)N[C@H](C(=O)N[C@@H](CS)C(=O)N[C@@H](CS)C(=O)N[C@@H](C)C(=O)N[C@@H](CCCNC(=N)N)C(=O)N[C@@H](CCCNC(=N)N)C(=O)N[C@@H](CCCCN)C(=O)N[C@@H](CCCNC(=N)N)C(=O)O)C(C)C)[C@@H](C)O [HoSa2] (H-TRWEAMKAKATELRVCCARRKR-OH; N-terminus and C-terminus assumed) | > 128 µg/mL | > 128 µg/mL | > 128 µg/mL | – | – | – | – | > 128 µg/mL
VWEFFEAGAGLRASNASKKIYGVAKRFRR [DiVi1] | > 128 µg/mL | > 128 µg/mL | > 128 µg/mL | – | – | – | – | > 128 µg/mL
RVKRFWPLVPVAINTVAAGINLYKAIRRK [Chicken CATH-3, reference compound] | 2 to 4 µg/mL | 2 µg/mL | 2 to 4 µg/mL | – | – | – | – | 2 to 4 µg/mL
GVLKKVIRHKR [HoSa6, putative AMP mined from UniProt P24821, Q29116; Homo sapiens, Sus scrofa] | – | – | – | > 128 µg/mL | > 128 µg/mL | > 128 µg/mL | > 128 µg/mL | –
RSIIRNGIRTLTWRKETKRKKK [ArTh11] | 64 to 128 µg/mL | – | – | 64 to 128 µg/mL | – | > 128 µg/mL | > 128 µg/mL | –
RIRGHTIKG [DrMe6, putative AMP mined from UniProt O46201, Drosophila melanogaster] | – | – | – | > 128 µg/mL | > 128 µg/mL | > 128 µg/mL | > 128 µg/mL | –
CC[C@H](C)[C@H](NC(=O)[C@H](CC(C)C)NC(=O)[C@H](CC(=O)O)NC(=O)[C@H](CCCNC(=N)N)NC(=O)[C@H](CO)NC(=O)[C@H](CS)NC(=O)[C@H](Cc1c[nH]cn1)NC(=O)[C@H](Cc1c[nH]cn1)NC(=O)[C@H](Cc1c[nH]cn1)NC(=O)[C@H](Cc1ccc(O)cc1)NC(=O)[C@H](CC(C)C)NC(=O)[C@H](Cc1ccccc1)NC(=O)[C@H](CC(N)=O)NC(=O)[C@H](CC(C)C)NC(=O)[C@H](CC(C)C)NC(=O)[C@H](Cc1ccc(O)cc1)NC(=O)[C@H](CO)NC(=O)[C@H](CS)NC(=O)[C@@H](NC(=O)[C@H](Cc1c[nH]c2ccccc12)NC(=O)[C@H](Cc1ccccc1)NC(=O)[C@@H](NC(=O)[C@H](Cc1c[nH]c2ccccc12)NC(=O)[C@H](CC(N)=O)NC(=O)[C@H](CCCCN)NC(=O)[C@H](C)NC(=O)[C@H](Cc1c[nH]c2ccccc12)NC(=O)[C@H](CC(=O)O)NC(=O)[C@H](Cc1c[nH]c2ccccc12)NC(=O)[C@H](C)N)C(C)C)[C@@H](C)O)C(=O)N[C@@H](CCCNC(=N)N)C(=O)N[C@@H](CCCNC(=N)N)C(=O)O [ScPo1] (H-AWDWAKNWVFWTCSYLLNFLYHHHCSRDLIRR-OH; N-terminus and C-terminus assumed) | > 128 µg/mL | > 128 µg/mL | > 128 µg/mL | – | – | – | – | > 128 µg/mL
YVSPVAIVKGLNIPL [Ovipin, reference compound] | > 128 µg/mL | > 128 µg/mL | – | – | – | – | – | –
RFGRFLRKIRRFRPKVTITIQGSARFG [Chicken CATH-2, reference compound] | 8 to 16 µg/mL | 32 µg/mL | 32 µg/mL | – | – | – | – | 8 to 16 µg/mL
FWNLNKKKKFFYKTVKNSIGQVILRDMSNN [DiDi2] | 16 µg/mL | > 128 µg/mL | > 128 µg/mL | – | – | – | – | 16 µg/mL
QVWKRR [HoSa8, putative AMP mined from UniProt Q9BXP8, Homo sapiens] | – | – | – | > 128 µg/mL | > 128 µg/mL | > 128 µg/mL | > 128 µg/mL | –
GLQKLINKIKSQMSRFSTKTNKICGP [HoSa1] | 16 µg/mL | 128 µg/mL | – | – | – | – | – | 16 to 32 µg/mL
FLEKPPGPLGARPLGGK [MuMu4, putative AMP mined from UniProt Q9Z0L3, Mus musculus] | – | – | – | > 128 µg/mL | > 128 µg/mL | > 128 µg/mL | > 128 µg/mL | –
